Source: publication PMC6035379 (Journal of Ginseng Research, 2017)
Structures can show the parent of a compound that is named as a salt.

What was measured:
[1] = assay type: in vivo; conditions: rats; fexofenadine 10 mg/kg oral; control group without KRG
CYP1A1 = conditions: HepG2 cells; cited from earlier work
CYP2C19 = conditions: cited from earlier work
CYP3A4 = conditions: cited from earlier work
CYP2D6 = conditions: cited from earlier work
CYP2C9 = conditions: cited from earlier work
drug-resistant KBV cells = conditions: cited from earlier work
P-gp = conditions: cited from earlier work

**Q.** Which “mean maximum concentration of fexofenadine” value [1] does the source give for `CC(C)(C(=O)O)c1ccc(C(O)CCCN2CCC(C(O)(c3ccccc3)c3ccccc3)CC2)cc1` (stereo not drawn) [fexofenadine, Fexofenadine hydrochloride] here?
**A.** The value was 32 ng/mL.

**Q.** Which “mRNA level of CYP1A1” value (CYP1A1) does the source give for `CC(C)=CCC[C@](C)(O[C@@H]1O[C@H](CO[C@@H]2OC[C@H](O)[C@H](O)[C@H]2O)[C@@H](O)[C@H](O)[C@H]1O)[C@H]1CC[C@]2(C)[C@@H]1[C@H](O)C[C@@H]1[C@@]3(C)CC[C@H](O[C@@H]4O[C@H](CO)[C@@H](O)[C@H](O)[C@H]4O[C@@H]4O[C@H](CO)[C@@H](O)[C@H](O)[C@H]4O)C(C)(C)[C@@H]3CC[C@]12C` [ginsenoside Rb2] here?
**A.** Its value is “significantly increased”.

**Q.** Which results are given for `CC(C)=CCC[C@](C)(O[C@@H]1O[C@H](CO)[C@@H](O)[C@H](O)[C@H]1O)[C@H]1CC[C@]2(C)[C@@H]1[C@H](O)C[C@@H]1[C@@]3(C)CC[C@H](O[C@@H]4O[C@H](CO)[C@@H](O)[C@H](O)[C@H]4O[C@@H]4O[C@H](CO)[C@@H](O)[C@H](O)[C@H]4O)C(C)(C)[C@@H]3CC[C@]12C` [ginsenoside Rd]?
**A.** inhibition of CYP2C19 (CYP2C19): weak inhibition; inhibition of CYP3A4 (CYP3A4): weak inhibition; inhibition of CYP2D6 (CYP2D6): weak inhibition; inhibition of CYP2C9 (CYP2C9): weak inhibition

**Q.** For `CC(C)=CCC[C@](C)(O[C@@H]1O[C@H](CO)[C@@H](O)[C@H](O)[C@H]1O)[C@H]1CC[C@]2(C)[C@@H]1[C@H](O)C[C@@H]1[C@@]3(C)CC[C@H](O)C(C)(C)[C@@H]3[C@@H](O[C@@H]3O[C@H](CO)[C@@H](O)[C@H](O)[C@H]3O)C[C@]12C` [ginsenoside Rg1], which “mRNA level of CYP1A1” value (CYP1A1) is on record?
**A.** Its value is “significantly increased”.

**Q.** Which “(3H) vinblastine efflux” value (drug-resistant KBV cells) does the source give for `CC(C)=CCC[C@](C)(O)[C@H]1CC[C@]2(C)[C@@H]1[C@H](O)C[C@@H]1[C@@]3(C)CC[C@H](O[C@@H]4O[C@H](CO)[C@@H](O)[C@H](O)[C@H]4O[C@@H]4O[C@H](CO)[C@@H](O)[C@H](O)[C@H]4O)C(C)(C)[C@@H]3CC[C@]12C` [ginsenoside Rg3] here?
**A.** Its value is “inhibited”.

**Q.** With `Cc1ncc2n1-c1ccc(Cl)cc1C(c1ccccc1F)=NC2` [midazolam] as the compound, how does the “transport by P-gp” value (P-gp) read?
**A.** Its value is “not transported”.
